In patent US7008905B2, “Method of combating undesired plant growth on cereals” (BASF Aktiengesellschaft, priority 2000, dated 2006):

Columns and labels:
Format in all cases: in vivo
[1] = system: Lamium purpureum; experiment: Pre-emergence test, weed control; conditions: 3 weeks after treatment, rating 0-100 (100=death), Table 1
In short: (§1)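 Using a 900 l/ha spray volume, test formulations are applied to newly sown soil at five rates from 15 to 240 g/ha. Each formulation is an acetone solution containing 0.4% w/w wetting agent, diluted with water; visual 0–100 ratings follow at three weeks.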

[2] = system: Polygonum convolvulus; experiment: Pre-emergence test, weed control; conditions: 3 weeks after treatment, rating 0-100 (100=death), Table 1
In short: as §1

[3] = system: Apera spica-venti; experiment: Pre-emergence test, weed control; conditions: 3 weeks after treatment, rating 0-100 (100=death), Table 1
In short: as §1

[4] = system: Matricaria inodora; experiment: Pre-emergence test, weed control; conditions: 3 weeks after treatment, rating 0-100 (100=death), Table 1
In short: as §1

[5] = system: Poa annua; experiment: Pre-emergence test, weed control; conditions: 3 weeks after treatment, rating 0-100 (100=death), Table 1
In short: as §1

[6] = system: Veronica persica; experiment: Pre-emergence test, weed control; conditions: 3 weeks after treatment, rating 0-100 (100=death), Table 1
In short: as §1

[7] = system: Triticum aestivum variety “Monopol”; experiment: Post-emergence test, selectivity; conditions: 2–4 weeks after treatment, rating 0-100 (100=death), Table 6
Protocol: (§2) These acetone solutions are diluted with water and the resulting formulations applied at dosage levels equivalent of about 0.030 to 0.240 kg per hectare of test compound per pot. After spraying the plants are placed an greenhouse benches and are cared for in the usual manner, commensurate with conventional greenhouse practices. From 2 to 4 weeks after treatment, the seedling plants are examined and rated according to the rating system provided above. A rating 0 indicates growth as untreated control, a rating 100 indicates death.

[8] = system: Triticum aestivum variety “Kanzler”; experiment: Post-emergence test, selectivity; conditions: 2–4 weeks after treatment, rating 0-100 (100=death), Table 6
Protocol: as §2

[9] = system: VIOAR; experiment: Post-emergence test, weed control; conditions: 2–4 weeks after treatment, rating 0-100 (100=death), Table 5
Protocol: as §2

[10] = system: Stellaria media; experiment: Post-emergence test, weed control; conditions: 2–4 weeks after treatment, rating 0-100 (100=death), Table 5
Protocol: as §2

[11] = system: Lamium purpureum; experiment: Post-emergence test, weed control; conditions: 2–4 weeks after treatment, rating 0-100 (100=death), Table 5
Protocol: as §2

[12] = system: Polygonum convolvulus; experiment: Post-emergence test, weed control; conditions: 2–4 weeks after treatment, rating 0-100 (100=death), Table 5
Protocol: as §2

[13] = system: Matricaria inodora; experiment: Post-emergence test, weed control; conditions: 2–4 weeks after treatment, rating 0-100 (100=death), Table 5
Protocol: as §2

[14] = system: Setaria viridis; experiment: Post-emergence test, weed control; conditions: 2–4 weeks after treatment, rating 0-100 (100=death), Table 5
Protocol: as §2

[15] = system: Galium aparine; experiment: Post-emergence test, weed control; conditions: 2–4 weeks after treatment, rating 0-100 (100=death), Table 5
Protocol: as §2

[16] = system: Triticum aestivum variety “Monopol”; experiment: Pre-emergence test, selectivity; conditions: 3 weeks after treatment, rating 0-100 (100=death), Table 2
In short: as §1

[17] = system: HORVW; experiment: Pre-emergence test, selectivity; conditions: 3 weeks after treatment, rating 0-100 (100=death), Table 2
In short: as §1

[18] = system: Triticum aestivum variety “Kanzler”; experiment: Pre-emergence test, selectivity; conditions: 3 weeks after treatment, rating 0-100 (100=death), Table 2
In short: as §1

[19] = system: Hordeum vulgare variety “Mammut”; experiment: Pre-emergence test, selectivity; conditions: 3 weeks after treatment, rating 0-100 (100=death), Table 2
In short: as §1

In the case of `Cc1nc(-c2ccc(C(F)(F)F)cc2)nc(Oc2cccc(C(F)(F)F)c2)c1C` [REF-2], the “LAMPU weed control rating” value ([1]; 0.030 kg/ha) is reported as 40, the “LAMPU weed control rating” value ([1]; 0.060 kg/ha) is reported as 75 and the “LAMPU weed control rating” value ([1]; 0.120 kg/ha) is reported as 98. For the same compound, the “LAMPU weed control rating” value ([1]; 0.240 kg/ha) was 100, the “POLCO weed control rating” value ([2]; 0.015 kg/ha) was 0 and the “POLCO weed control rating” value ([2]; 0.030 kg/ha) was 0. The “POLCO weed control rating” value ([2]; 0.060 kg/ha) was 0, the “POLCO weed control rating” value ([2]; 0.120 kg/ha) was 30 and the “POLCO weed control rating” value ([2]; 0.240 kg/ha) was 80. For the same compound, the “APESV weed control rating” value ([3]; 0.015 kg/ha) was 80, the “APESV weed control rating” value ([3]; 0.030 kg/ha) was 85 and the “APESV weed control rating” value ([3]; 0.060 kg/ha) was 98. For the same compound, the “APESV weed control rating” value ([3]; 0.120 kg/ha) was 100, the “APESV weed control rating” value ([3]; 0.240 kg/ha) was 100 and the “MATIN weed control rating” value ([4]; 0.015 kg/ha) was 95. The “MATIN weed control rating” value ([4]; 0.030 kg/ha) was 98, the “MATIN weed control rating” value ([4]; 0.060 kg/ha) was 98 and the “MATIN weed control rating” value ([4]; 0.120 kg/ha) was 99. The “MATIN weed control rating” value ([4]; 0.240 kg/ha) was 99, the “POAAN weed control rating” value ([5]; 0.015 kg/ha) was 65 and the “POAAN weed control rating” value ([5]; 0.030 kg/ha) was 95. For the same compound, the “POAAN weed control rating” value ([5]; 0.060 kg/ha) was 97, the “POAAN weed control rating” value ([5]; 0.120 kg/ha) was 100 and the “POAAN weed control rating” value ([5]; 0.240 kg/ha) was 100. For the same compound, the “VERPE weed control rating” value ([6]; 0.015 kg/ha) was 25, the “VERPE weed control rating” value ([6]; 0.030 kg/ha) was 99 and the “VERPE weed control rating” value ([6]; 0.060 kg/ha) was 100. The “VERPE weed control rating” value ([6]; 0.120 kg/ha) was 100, the “VERPE weed control rating” value ([6]; 0.240 kg/ha) was 100 and the “TRZAWM rating (Selectivity)” value ([7]; 0.03 kg/ha) was 2. For the same compound, the “TRZAWM rating (Selectivity)” value ([7]; 0.06 kg/ha) was 5, the “TRZAWM rating (Selectivity)” value ([7]; 0.12 kg/ha) was 8 and the “TRZAWM rating (Selectivity)” value ([7]; 0.24 kg/ha) was 8. The “TRZAWK rating (Selectivity)” value ([8]; 0.03 kg/ha) was 3, the “TRZAWK rating (Selectivity)” value ([8]; 0.06 kg/ha) was 5 and the “TRZAWK rating (Selectivity)” value ([8]; 0.12 kg/ha) was 8. For the same compound, the “TRZAWK rating (Selectivity)” value ([8]; 0.24 kg/ha) was 10, the “VIOAR weed control rating” value ([9]; 0.030 kg/ha) was 75 and the “VIOAR weed control rating” value ([9]; 0.060 kg/ha) was 90. The “VIOAR weed control rating” value ([9]; 0.120 kg/ha) was 90, the “VIOAR weed control rating” value ([9]; 0.240 kg/ha) was 95 and the “STEME weed control rating” value ([10]; 0.030 kg/ha) was 45. The “STEME weed control rating” value ([10]; 0.060 kg/ha) was 50, the “STEME weed control rating” value ([10]; 0.120 kg/ha) was 55 and the “STEME weed control rating” value ([10]; 0.240 kg/ha) was 80. For the same compound, the “LAMPU weed control rating” value ([11]; 0.030 kg/ha) was 85, the “LAMPU weed control rating” value ([11]; 0.060 kg/ha) was 90 and the “LAMPU weed control rating” value ([11]; 0.120 kg/ha) was 92. For the same compound, the “LAMPU weed control rating” value ([11]; 0.240 kg/ha) was 93, the “POLCO weed control rating” value ([12]; 0.060 kg/ha) was 0 and the “POLCO weed control rating” value ([12]; 0.120 kg/ha) was 25. The “POLCO weed control rating” value ([12]; 0.240 kg/ha) was 40, the “MATIN weed control rating” value ([13]; 0.030 kg/ha) was 35 and the “MATIN weed control rating” value ([13]; 0.060 kg/ha) was 45. The “MATIN weed control rating” value ([13]; 0.120 kg/ha) was 55, the “MATIN weed control rating” value ([13]; 0.240 kg/ha) was 60 and the “SETVI weed control rating” value ([14]; 0.030 kg/ha) was 30. The “SETVI weed control rating” value ([14]; 0.060 kg/ha) was 55, the “SETVI weed control rating” value ([14]; 0.120 kg/ha) was 96 and the “SETVI weed control rating” value ([14]; 0.240 kg/ha) was 100. For the same compound, the “GALAP weed control rating” value ([15]; 0.030 kg/ha) was 50, the “GALAP weed control rating” value ([15]; 0.060 kg/ha) was 80 and the “GALAP weed control rating” value ([15]; 0.120 kg/ha) was 85. The “GALAP weed control rating” value ([15]; 0.240 kg/ha) was 85, the “TRZAWM rating (Selectivity)” value ([16]; 0.030 kg/ha) was 1 and the “TRZAWM rating (Selectivity)” value ([16]; 0.060 kg/ha) was 1. For the same compound, the “TRZAWM rating (Selectivity)” value ([16]; 0.120 kg/ha) was 2, the “TRZAWM rating (Selectivity)” value ([16]; 0.240 kg/ha) was 5 and the “HORVW rating (Selectivity)” value ([17]; 0.030 kg/ha) was 10. For the same compound, the “HORVW rating (Selectivity)” value ([17]; 0.060 kg/ha) was 10, the “HORVW rating (Selectivity)” value ([17]; 0.120 kg/ha) was 20 and the “HORVW rating (Selectivity)” value ([17]; 0.240 kg/ha) was 30. For the same compound, the “TRZAWK rating (Selectivity)” value ([18]; 0.030 kg/ha) was 1, the “TRZAWK rating (Selectivity)” value ([18]; 0.060 kg/ha) was 1 and the “TRZAWK rating (Selectivity)” value ([18]; 0.120 kg/ha) was 1. For the same compound, the “TRZAWK rating (Selectivity)” value ([18]; 0.240 kg/ha) was 5, the “HORVWM rating (Selectivity)” value ([19]; 0.030 kg/ha) was 3 and the “HORVWM rating (Selectivity)” value ([19]; 0.060 kg/ha) was 5. The “HORVWM rating (Selectivity)” value ([19]; 0.120 kg/ha) was 18 and the “HORVWM rating (Selectivity)” value ([19]; 0.240 kg/ha) was 25.
